Each structure is given as a SMILES string.

The text below walks through data of patent publication US20210247400A1, “ACTIVATION OF PATTERN-TRIGGERED IMMUNITY IN PLANTS BY LIPOOLIGOSACCHARID-SPECIFIC REDUCED ELICITATION (LORE) AND VARIANTS THEREOF” (Technische Universität München, priority 2018, published 2021).

One experiment concerns AtMPK3 and AtMPK6. Kind of experiment: Immunoblot analysis of MAPK activation. It counts as cell-based, Arabidopsis thaliana. As to conditions: 5 μM, seedlings, FIG. 1H. The protocol:
MAPK activation was elicited in 14-days-old liquid-grown seedlings as described (Ranf et al., 2015) by adding MAMPs to the final concentrations indicated. […] Proteins were extracted in kinase extraction buffer containing 50 mM Tris/HCl pH 7.5, 100 mM NaCl, 20 mM EGTA, 30 mM beta-glycerophosphate, 30 mM 4-p-Nitrophenylphosphate, 4 mM NaF, 4 mM Na3VO4, 4 mM Na2MoO4, 10 mM DTT, 0.2% Tween 20, and 1× plant protease inhibitor cocktail P9599 (Sigma-Aldrich). […] total protein (according to Bradford Protein Assay, Bio-Rad) was separated by standard SDS polyacrylamide gel-electrophoresis (Mini-PROTEAN Tetra Cell, Bio-Rad) and blotted onto nitrocellulose membrane (Amersham™ Protran™ 0.2 μm NC, GE Healthcare) using a Trans-Blot® SD Semi-Dry Transfer Cell (Bio-Rad). Membranes were blocked in Protein-Free TBS Blocking Buffer (Pierce™) and immunostained with anti-phospho-MPK antibody (anti-phospho-p44/42-ERK, 1:1000, Cell Signaling Technology #9101) and anti-rabbit-IgG-peroxidase conjugate (A9169, 1:50000, Sigma-Aldrich) using SuperSignal™ West Dura Extended Duration Substrate (Thermo Scientific). ECL chemiluminescence was detected using a Fusion SL camera (Vilber Lourmat). Membranes were stained with Amido black to assess equal protein loading.

The next experiment concerns Pst DC3000. Kind of experiment: Induced resistance assay in Arabidopsis plants. It counts as in vivo, Pseudomonas syringae pv. tomato. As to conditions: FIG. 1J. The protocol: After two or three days Pst DC3000 was syringe infiltrated into leaves 4 and 5 of the pretreated plants at 1×10^5 CFU/ml. Bacterial growth in infected leaves was determined 4 days later as described (Vlot et al., 2008). Statistical analysis (one-way analysis of variance, ANOVA, with Tukey's multiple comparison post-test) was applied separately for wild type and mutant plants using GraphPad Prism 7.0.

For experiment [1], the target named is T1, LORE (Arabidopsis thaliana, UniProt O64782).
T1 construct: aequorin-expressing wild-type (Col-0^AEQ) or lore-1 mutant seedlings; endogenous in cells; host or cells: Arabidopsis thaliana Col-0 / Col-0^AEQ seedlings and leaf discs
T1 sequence (O64782 22-805): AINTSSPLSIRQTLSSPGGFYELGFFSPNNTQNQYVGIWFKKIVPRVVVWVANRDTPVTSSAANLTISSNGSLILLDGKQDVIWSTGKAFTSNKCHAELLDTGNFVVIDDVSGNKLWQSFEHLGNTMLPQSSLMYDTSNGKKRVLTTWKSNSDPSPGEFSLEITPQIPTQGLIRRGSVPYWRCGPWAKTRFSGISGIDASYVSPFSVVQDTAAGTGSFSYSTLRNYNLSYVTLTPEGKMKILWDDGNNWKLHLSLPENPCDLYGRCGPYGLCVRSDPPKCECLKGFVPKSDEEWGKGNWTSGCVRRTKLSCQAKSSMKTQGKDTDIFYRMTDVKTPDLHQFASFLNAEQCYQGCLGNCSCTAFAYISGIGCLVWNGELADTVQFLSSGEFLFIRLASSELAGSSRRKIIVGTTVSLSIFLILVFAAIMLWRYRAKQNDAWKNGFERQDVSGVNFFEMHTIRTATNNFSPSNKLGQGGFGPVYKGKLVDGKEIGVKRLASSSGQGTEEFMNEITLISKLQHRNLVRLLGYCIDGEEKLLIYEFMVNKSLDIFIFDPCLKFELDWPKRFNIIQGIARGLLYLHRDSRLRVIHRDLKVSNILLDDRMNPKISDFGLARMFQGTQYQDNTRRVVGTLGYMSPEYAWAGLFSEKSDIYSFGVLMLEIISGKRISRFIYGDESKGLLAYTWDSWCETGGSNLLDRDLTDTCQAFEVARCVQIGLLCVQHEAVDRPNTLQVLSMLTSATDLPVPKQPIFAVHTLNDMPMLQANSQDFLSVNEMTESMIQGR
Kind of experiment: PTI in Arabidopsis (biological assays, LORE dependence). It counts as cell-based. The following applies: for elicitor activity / PTI responses / early PTI signalling reactions: 5 μM, [Ca^2+]cyt and ROS; for elicitor activity: FIG. 3B-E, FIG. 6B; for PTI responses ([Ca^2+]cyt signalling, ROS production, defence gene induction, MAPK activation; ROS in LORE-GFP-expressing N. benthamiana): FAs 1-5 μM, compared to mc-3-OH-FAs, FIG. 2A-G; for PTI responses: FIG. 3A,B; for early PTI signalling reactions: short-term exposure, FIG. 4D-E.

Experiment [2] addresses T1, LORE. The experiment is described as follows: Aequorin luminescence measurements of [Ca^2+]cyt elevations in Arabidopsis seedlings. Type of experiment: cell-based. The following applies: for elicitor activity ([Ca^2+]cyt response): 5 μM, Col-0^AEQ or lore-1 seedlings, FIG. 2H-J. The protocol: Aequorin luminescence measurements were performed essentially as described (Ranf et al., 2012). In short, 8- to 10-days-old liquid-grown apoaequorin-expressing seedlings were placed individually in 96-well plates in MP-dH2O containing 5-10 μM coelenterazine-h (p.j.k. GmbH) in the dark overnight. Luminescence was recorded by scanning 2 rows in 10 sec intervals using a Luminoskan Ascent 2.1 (Thermo Scientific). Remaining aequorin was discharged by addition of 150 μl 2 M CaCl2) with 20% EtOH per well. [Ca^2+]cyt concentrations were calculated as L/Lmax (luminescence counts per sec/total luminescence counts remaining).

For a further experiment, the system named is AtFRK1 and AtNHL10. Kind of experiment: Gene expression analysis (quantitative PCR of defence genes). As to conditions: 1 μM, four hours after elicitation, seedlings, FIG. 1G.
Experiment [3] deals with T1, LORE. Kind of experiment: ROS detection in Arabidopsis leaves (leaf discs). It counts as cell-based. As to conditions: 5 μM, leaf discs Col-0 or lore-5, FIG. 2D. The protocol:
ROS production was monitored as described (Ranf et al., 2015) in 3 mm leaf discs from 6-8 weeks-old soil-grown plants in 100 μl 5 μM L-012 (WAKO chemicals) and 2 μg/ml horseradish peroxidase (Type II, Roche) in MP-dH2O. For experiments including 4-OH-10:0 (19) and 5-OH-10:0 (20), 10 mM Tris pH 8 was added to the L-012/HRP mix. Luminescence was recorded as relative light units (RLU) in 1 min intervals using a Luminoskan Ascent 2.1 (Thermo Scientific) or a Tecan F200. After 10 min background reading, elicitors were added to the final concentrations indicated and luminescence readings continued over 45-60 min. Data are depicted after normalization to average ROS levels 5 min before elicitor application and subtraction of water or MeOH controls that were included for each genotype on the same plate.

Where [4] appears, read: wild-type Arabidopsis plants pre-treated with 10 μM, titre at 4 dpi.
[5] abbreviates: sample conc. used for biological assays 1 μM-5 μM (mostly).
[6] abbreviates: sample conc. used for biological assays 5 μM.

Regarding `CCCCCCCC(O)CC(=O)O` (racemic) [Compound 1, 3-hydroxydecanoic acid], the “phosphorylation of AtMPK3 and AtMPK6” value in the experiment with AtMPK3 and AtMPK6 was “phosphorylation of mitogen-activated protein kinases (MAPK), AtMPK3 and AtMPK6”. Besides, the “systemic resistance to infection with Pst DC3000” value is given as “systemic resistance was not activated” with Pst DC3000 (lore-1 mutant plants pre-treated with 10 μM) and “more resistant to subsequent infection with virulent Pst DC3000” in the experiment with Pst DC3000 (setting [4]). Further, the elicitor activity result on LORE [1] was “strongest elicitor activity”. Also, the LORE-dependent entry at LORE [1] (setting [5]) and at LORE [1] (setting [6]) was “Yes” throughout. For the same molecule, the “PTI in Arabidopsis” value at LORE [1] (setting [5]) and at LORE [1] (setting [6]) was “Yes” throughout. In addition, the “[Ca^2+]cyt or ROS signals” value on LORE [1] (subsequent application after mc-3-OH-FA-depleted LPS, FIG. 4A-C, FIG. 5) is “typical [Ca^2+]cyt or ROS signals were induced”. For the same molecule, the “[Ca^2+]cyt elevations” value at LORE [2] (Col-0^AEQ seedlings, different concentrations (nanomolar to micromolar range), FIG. 1C) was “sufficient to elicit [Ca^2+]cyt elevations”. Also, in the experiment on AtFRK1 and AtNHL10, the “transcript accumulation of PTI response genes AtFRK1 and AtNHL10” value is “induced transcript accumulation”.
As to `CCCCCCCCCCCC(O)CC(=O)O` (racemic) [Compound 7, 3-hydroxytetradecanoic acid], in the experiment on Pst DC3000 (setting [4]), the “systemic resistance to infection with Pst DC3000” value is “did not establish systemic resistance to bacterial infection”. The PTI signalling result on LORE [1] (FIG. 1D-H) was “did not induce PTI signalling”.
In the case of `CCCCCCCCCC(=O)NC1CCOC1=O` (racemic) [Compound 43, N-Decanoyl-DL- homoserine lactone], at LORE [1] (setting [6]), the “PTI in Arabidopsis” value is listed as “No”.
Turning to `CCCCCCC/C=C\C(=O)O` [Compound 17, (Z)-dec-2-enoic acid], the “PTI responses ([Ca^2+]cyt signalling, ROS production, defence gene induction, MAPK activation; ROS in LORE-GFP-expressing N. benthamiana)” value at LORE [1] was “weak and independent of LORE”.
As for `CCCCCCC/C=C/C(=O)O` [Compound 18, (E)-dec-2-enoic acid], the “PTI responses ([Ca^2+]cyt signalling, ROS production, defence gene induction, MAPK activation; ROS in LORE-GFP-expressing N. benthamiana)” value on LORE [1] was “weak and independent of LORE”.
`CCCCCCC(O)CCC(=O)O` (stereo not drawn) [Compound 19, 4-hydroxydecanoic acid]: the “LORE-dependent ROS production” value at LORE [3] is listed as “did not elicit LORE-dependent ROS production”.
Consider `CCCCCC(O)CCCC(=O)O` (stereo not drawn) [Compound 20, 5-hydroxydecanoic acid], for which the “LORE-dependent ROS production” value at LORE [3] was “did not elicit LORE-dependent ROS production”.
Regarding `CCCCCCCC(Cl)CC(=O)OC` (stereo not drawn) [Compound 22, methyl 3-chlorodecanoate], the “elicitor activity ([Ca^2+]cyt response)” value on LORE [2] is recorded as “abolished elicitor activity”.
In the case of `CCCCCCCC(=O)CC(=O)O` [Compound 23, 3-oxodecanoic acid], the “elicitor activity ([Ca^2+]cyt response)” value at LORE [2] was “induced a moderate LORE-dependent [Ca^2+]cyt response”.
On the same count and under the same terms, with `CCCCCCCC(CC(=O)O)OC` (stereo not drawn) [Compound 24, 3-methoxydecanoic acid] the entry was “abolished elicitor activity”.
With `CCCCCCCC(CC(=O)O)OC(C)=O` (stereo not drawn) [Compound 25, 3-acetoxydecanoic acid], the “elicitor activity ([Ca^2+]cyt response)” value on LORE [2] is recorded as “abolished elicitor activity”.
`CCCCCCCC(O)CC` (stereo not drawn) [Compound 27, decan-3-ol]: the PTI responses result at LORE [1] is “neither 3-decanol nor 1,3-decandiol elicited PTI responses”.
Turning to `CCCCCCCC(O)CCO` (stereo not drawn) [Compound 28, decane-1,3-diol], at LORE [1], the PTI responses result was “neither 3-decanol nor 1,3-decandiol elicited PTI responses”.
`CCCCCCCC(O)CC(=O)OC(C)(C)C` (stereo not drawn) [Compound 30, tert-butyl-3-hydroxydecanoate]: the elicitor activity entry at LORE [1] was “inactive”.
As for `CCCCCCCC(O)CC(=O)N[C@H]1CCOC1=O` (stereo partly drawn) [Compound 41, N-(3-Hydroxydecanoyl)-L-homoserine lactone], the “early PTI signalling reactions” value on LORE [1] is reported as “did not elicit significant early PTI signalling reactions”. Besides, the “PTI in Arabidopsis” value on LORE [1] (setting [6]) is on record as “No”.
For `CCCCCCCC(=O)CC(=O)N[C@H]1CCOC1=O` [Compound 42, N-(3-Oxodecanoyl)-L-homoserine lactone], at LORE [1], the “early PTI signalling reactions” value is listed as “did not elicit significant early PTI signalling reactions”. In addition, at LORE [1] (setting [6]), the “PTI in Arabidopsis” value is recorded as “No”.
As for `CCCCCCC[C@@H](O)CC(=O)O` [Compound 44, (R)-3-hydroxydecanoic acid], the “immune signalling ([Ca^2+]cyt elevations)” value on LORE [2] (different concentrations, Arabidopsis seedlings, FIG. 6A) is reported as “induced stronger immune signalling than (S)-3-OH—C10:0 (45)”.
